Positions count from the first letter of the chain named.

Experiment [1] addresses T1, hURAT1 F449A (Homo sapiens, UniProt Q96S37, F449A).
T1 construct: Flag; expressed in transfected cells; host or cells: HEK293
T1 sequence (Q96S37 1-553 F449A): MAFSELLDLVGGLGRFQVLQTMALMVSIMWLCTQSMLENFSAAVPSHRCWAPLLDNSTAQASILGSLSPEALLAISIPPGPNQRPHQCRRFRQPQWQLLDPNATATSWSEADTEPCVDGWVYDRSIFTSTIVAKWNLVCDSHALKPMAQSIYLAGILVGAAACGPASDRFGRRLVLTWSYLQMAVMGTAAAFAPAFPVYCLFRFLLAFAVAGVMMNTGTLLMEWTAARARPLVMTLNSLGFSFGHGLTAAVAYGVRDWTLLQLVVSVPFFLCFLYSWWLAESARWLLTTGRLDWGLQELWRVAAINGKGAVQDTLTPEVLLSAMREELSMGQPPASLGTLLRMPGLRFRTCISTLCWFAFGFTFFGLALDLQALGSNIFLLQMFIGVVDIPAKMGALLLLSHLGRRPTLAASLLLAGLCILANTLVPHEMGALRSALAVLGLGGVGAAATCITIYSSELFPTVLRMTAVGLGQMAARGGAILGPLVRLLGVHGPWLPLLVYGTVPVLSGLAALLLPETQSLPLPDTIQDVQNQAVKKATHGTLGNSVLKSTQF
Kind of experiment: 14C-urate uptake inhibition assay, hURAT1 F449A mutant in HEK293 cells. The format is cell-based. Here is the method:
(§1) The cells were seeded at a density of 30,000 cells per well in Isoplate-96 plates (Perkin Elmer).

Experiment [2] concerns the target T2, hURAT1 F360A (Homo sapiens, UniProt Q96S37, F360A).
T2 construct: Flag; expressed in transfected cells; host or cells: HEK293
T2 sequence (Q96S37 1-553 F360A): T1 sequence (Q96S37 1-553 F449A) with F360A, A449F
Kind of experiment: 14C-urate uptake inhibition assay, hURAT1 F360A mutant in HEK293 cells. The format is cell-based. The following applies: for effect of alanine substitution at F360 on inhibition: F360A vs wild-type URAT1, in words; for IC50: F360A hURAT1, HEK293 cells, 14C-urate uptake, n=3-8, read-out: pIC50 (Mean ± SEM) (converted). Here is the method: as §1

In experiment [3] the target is T3, hURAT1 R477K (Homo sapiens, UniProt Q96S37, R477K).
T3 construct: Flag; expressed in transfected cells; host or cells: HEK293
T3 sequence (Q96S37 1-553 R477K): T1 sequence (Q96S37 1-553 F449A) with A449F, R477K
Nature of the experiment: 14C-urate uptake inhibition assay, hURAT1 R477K mutant in HEK293 cells. The class given is cell-based. The conditions noted are these: for IC50: R477K hURAT1, HEK293 cells, 14C-urate uptake, n=3-8, read-out: pIC50 (Mean ± SEM) (converted). Here is the method:
as §1

In experiment [4] the target is T4, hURAT1 F364Y-F365Y (Homo sapiens, UniProt Q96S37, F364Y/F365Y).
T4 construct: Flag; expressed in transfected cells; host or cells: HEK293
T4 sequence (Q96S37 1-553 F364Y/F365Y): T1 sequence (Q96S37 1-553 F449A) with F364Y, F365Y, A449F
Nature of the experiment: 14C-urate uptake inhibition assay, hURAT1 F364Y-F365Y mutant in HEK293 cells. The format is cell-based. The following applies: for IC50: F364Y-F365Y hURAT1, HEK293 cells, 14C-urate uptake, n=3-8, N.A., not active, read-out: pIC50 (Mean ± SEM) (converted). Here is the method:
as §1

On the set-up of experiment [5]: method as in PMID 26378978, PMID 30415602. The following applies: high-risk patients; cited from earlier work.

Regarding `CCc1oc2ccccc2c1C(=O)c1cc(Br)c(O)c(Br)c1` [benzbromarone], the “effect of alanine substitution at F449 on inhibition” value in experiment [1] (F449A vs wild-type URAT1, in words) is “significantly diminish the inhibitory effectiveness”. Further, the “effect of alanine substitution at F360 on inhibition” value in experiment [2] was “significantly diminish the inhibitory effectiveness”. In addition, in experiment [3] (R477K vs wild-type URAT1, in words), the “effect of mutation of R477 to lysine on potency” value is recorded as “slightly reduced the potency”.
Take `O=C(c1cc(Cl)c(O)c(Cl)c1)N1CS(=O)(=O)c2ccccc21` [dotinurad]: the IC50 is 123 nM in experiment [4], 3160 nM in experiment [2] and 22.9 nM in experiment [3]. Besides, in experiment [2], the “effect of alanine substitution at F360 on inhibition” value was “markedly reduces the effectiveness”.
As to `OC[C@H]1O[C@@H](c2ccc(Cl)c(Cc3ccc(O[C@H]4CCOC4)cc3)c2)[C@H](O)[C@@H](O)[C@@H]1O` [empagliflozin], the “relative risk reduction in cardiovascular death” value in experiment [5] is 38%.
As to `O=C(O)CSc1nnc(Br)n1-c1ccc(C2CC2)c2ccccc12` [lesinurad], in experiment [4] (F364Y-F365Y vs wild-type URAT1, in words), the “effect of changing F364 and F365 to tyrosine on inhibition” value was “nearly abolishes the inhibitory effects”.
`CC(C)(Sc1ccncc1-c1ccc(C#N)c2ccccc12)C(=O)O` [verinurad]: the IC50 in experiment [4] was 245000 nM; in experiment [1] (F449A hURAT1, HEK293 cells, 14C-urate uptake, n=3-8, read-out: pIC50 (Mean ± SEM) (converted)), 126 nM; in experiment [2], 56.2 nM; in experiment [3], 513 nM.

The record behind these values is article PMC11962085, “Molecular mechanisms of urate transport by the native human URAT1 and its inhibition by anti-gout drugs” (Cell Discovery, 2025).
